The subject of data set [1] is acetic acid-induced writhing. The experiment in a line: inhibition of acetic acid-induced writhing counts in mice (analgesic effect). It counts as in vivo. The conditions noted are these: Mus musculus, read-out: ED50 (50% Effective dose). On the technique in general: In writhing tests, fewer writhes than in controls are read as antinociception.
Data set [2] in a line: acute toxicity, LD50 in mice by subcutaneous injection (Up and Down method). The conditions noted are these: mouse, sc, drugs dissolved in physiological saline. It counts as in vivo. The procedure:
**) LD50 in mice by subcutaneous injection of the drugs (calculated
by the Up and Down method). Drugs are dissolved in physiological saline

Each structure is given as a SMILES string.

As usually defined, the ED50 is the dose that gives a 50% effect, or the effect in half of the subjects. As a reminder, the LD50 is the dose expected to kill half of the subjects tested. Read a low LD50 as a more toxic substance. Regarding `Cc1occc1C(=O)N1CCN(CCCc2ccccc2)CC1.Cl` [Example 11, 1-(3-Phenylpropyl)-4-(2-methyl-3-furoyl)piperazine hydrochloride], the ED50 in data set [1] was found to be 1.81 mg/kg. This compound had a 50% lethal dose (LD50) in data set [2] of 170 mg/kg.
With `CC1CN(CCCc2ccccc2)CCN1C(=O)c1ccco1.Cl` (stereo not drawn) [Example 4, 1-(3-Phenylpropyl)-3-methyl-4-(2-furoyl)piperazine hydrochloride], the ED50 in data set [1] is 3.42 mg/kg. This compound also came in with a 50% lethal dose (LD50) in data set [2] greater than 750 mg/kg.
In the case of `Cc1ccccc1CCCN1C[C@@H](C)N(C(=O)c2ccco2)C[C@@H]1C.Cl` (relative stereo) [Example 15, trans-1-[3-(o-Methylphenyl)propyl]-2,5-dimethyl-4-(2-furoyl)piperazine hydrochloride], the ED50 in data set [1] is 1 mg/kg. In addition, the 50% lethal dose (LD50) in data set [2] was greater than 750 mg/kg.
In the same order, the values of `Cc1cccc(CCCN2C[C@@H](C)N(C(=O)c3ccco3)C[C@@H]2C)c1.Cl` (relative stereo) [Example 16, trans-1-[3-(m-Methylphenyl)propyl]-2,5-dimethyl-4-(2-furoyl)piperazine hydrochloride] are 1.05 mg/kg and greater than 500 mg/kg.
In the same order, the values of `CC1(C)CN(CCCc2ccccc2)CCN1C(=O)c1ccco1.Cl` [Example 5, 1-(3-Phenylpropyl)-3,3-dimethyl-4-(2-furoyl)piperazine hydrochloride] are 2.2 mg/kg and greater than 500 mg/kg.
In the same order, the values of `Cc1ccccc1CCCN1CCN(C(=O)c2ccco2)CC1.Cl` [Example 7, 1-[3-(o-Methylphenyl)propyl]-4-(2-furoyl)piperazine hydrochloride] are 3 mg/kg and 400 mg/kg.
For the compound `C[C@@H]1CN(CCCc2ccccc2)[C@@H](C)CN1C(=O)c1ccco1.Cl` (relative stereo) [Example 2, trans-1-(3-Phenylpropyl)-2,5-dimethyl-4-(2-furoyl)-piperazine hydrochloride], the ED50 in data set [1] stood at 1.52 mg/kg. The compound further came in with a median lethal dose (LD50) in data set [2] greater than 500 mg/kg.
In the same order, the values of `Cc1cccc(CCCN2CCN(C(=O)c3ccco3)CC2)c1.Cl` [Example 8, 1-[3-(m-Methylphenyl)propyl]-4-(2-furoyl)piperazine hydrochloride] are 3.35 mg/kg and 350 mg/kg.
Turning to `CC1CN(C(=O)c2ccco2)CCN1CCCc1ccccc1` (stereo not drawn) [Example 3, 1-(3-Phenylpropyl)-2-methyl-4-(2-furoyl)piperazine], in data set [1], the 50% effective dose (ED50) was 5.17 mg/kg. In data set [2], this compound showed an LD50 of 300 mg/kg.
On to `Cc1cc(C(=O)N2CCN(CCCc3ccccc3)CC2)co1.Cl` [Example 12, 1-(3-Phenylpropyl)-4-(5-methyl-3-furoyl)piperazine hydrochloride], for which, in data set [1], the 50% effective dose (ED50) was 3.93 mg/kg. Also, the median lethal dose (LD50) in data set [2] was found to be 200 mg/kg.
For the compound `Cl.O=C(c1ccco1)N1CCN(CCCc2ccccc2)CC1` [Example 1, 1-(3-Phenylpropyl)-4-(2-furoyl)piperazine hydrochloride], the ED50 in data set [1] came out at 7.8 mg/kg. Also, the 50% lethal dose (LD50) in data set [2] came to 400 mg/kg.
In the same order, the values of `CCOc1ccc(CCCN2CCN(C(=O)c3ccco3)CC2)cc1.Cl` [Example 9, 1-[3-(p-Ethoxyphenyl)propyl]-4-(2-furoyl)piperazine hydrochloride] are 8.85 mg/kg and 400 mg/kg.

The values above are taken from patent US3962249A, “1-(3-Phenylpropyl)-4-furoylpiperazine derivatives” (Kyorin Seiyaku Kabushiki Kaisha, priority 1974, dated 1976).
